In general, TGI refers to the concentration giving total growth inhibition. For orientation: GI50 means the concentration giving 50% growth inhibition.

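How tested: cells in 96-well plates exposed to compound for 48 hours at five concentrations. Abbreviation: GI50, concentration required for 50% inhibition of growth. Definition used: TGI = concentration required for complete inhibition of growth.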

The values that follow come from PubChem BioAssay (NCI).

The first assay has as its system MDA-MB-435. As to the kind of experiment: DTP human tumour cell line panel, 48 h.
On to `CC1CCC(C(=O)O)(C(Br)C(=O)O)CC1` (configuration not stated), for which the TGI was above 100 µM.

Molecule `COc1cc(NS(C)(=O)=O)ccc1Nc1cc(C)[nH]c2ccc3nccc3c12` gave a TGI above 100 µM.

Regarding `COc1ccc(-c2nc(SCC(=O)N/N=C/c3ccc(N(C)C)cc3)[nH]c2-c2ccc(OC)cc2)cc1`, the TGI is above 100 µM.

Regarding `CC1=C[C@@H]2Cc3nc4cc(Cl)ccc4c(N)c3[C@H](C1)C2`, the TGI came out at 25.8 µM.

`O=[N+]([O-])C(/C=C(\Cl)n1nnc2ccccc21)=C(/Cl)n1nnc2ccccc21` displayed a total growth inhibition concentration (TGI) above 100 µM.

`c1c[nH]c(-c2ccc(-c3ccc[nH]3)c3nsnc23)c1` showed a TGI above 70.9 µM.

Turning to `CS(=O)(=O)OCC(CCl)(CCl)CCl`, the TGI was above 100 µM.

In turn, `N#Cc1c(-c2ccccc2)/c(=C\Nc2ccc(F)cc2)c(=O)n2c1nc1ccccc12` had a TGI above 100 µM.

Molecule `COc1ccc2c(C)cc(=O)oc2c1OC` returned a TGI above 100 µM.

The molecule `OCCc1ccsc1-c1sc(-c2cc(CCO)c(-c3sccc3CCO)s2)cc1CCO` gave a TGI of 41.1 µM.

In turn, `Cc1cc2c3c(nc4ccccc42)C(=O)c2ccccc2-c3n1` had a TGI of 3.11 µM.

In the case of `CCOC(=O)c1c(C)nc2c3ccccc3c(C#N)c(C)n12`, the TGI is above 100 µM.

`O=c1[nH]c(Nc2nc3ccccc3[nH]2)nc(O)c1-c1ccccc1` gave a TGI above 100 µM.

With `CCOC(=O)c1cn2c(nc1=O)N[C@H]1CCCC[C@@H]12`, the TGI was above 100 µM.

As to `COP(=O)(/C=C/c1cc(C(=O)OCc2ccccc2)n(S(=O)(=O)c2ccccc2)c1)OC`, the TGI is above 100 µM.

For `CCN(CCCN(CC)C(=O)Nc1c(C)cccc1C)C(=O)Nc1c(C)cccc1C`, the TGI is above 100 µM.

In turn, `O=C(O)CCC(=O)OC1N=C(c2ccccc2Cl)c2cc([N+](=O)[O-])ccc2NC1=O` (configuration not stated) came in with a TGI above 100 µM.

`COc1ccc(C2=N/C(=C\c3ccccc3)C(=O)O2)cc1` had a TGI above 100 µM.

In turn, `Oc1ccc([I+]c2ccccc2)cc1O` registered a TGI of 66.2 µM.

`NC1=NCC(CN2CCOCC2)O1` (configuration not stated) yielded a TGI above 100 µM.

For the molecule `COc1cccc2c(=O)oc(-c3ccc(C(C)(C)C)cc3)nc12`, the TGI was above 100 µM.

In a further assay the test system is HL-60(TB) leukemia. As to the kind of experiment: DTP human tumour cell line panel, 48 h.
For `COc1ccc2c(c1)/C(=C\c1c(Cl)nc3sc(C)cn13)C(=O)N2`, the TGI turned out to be 6.11 µM.

In turn, `O=C(/C=C/c1ccc2c(c1)OCO2)CC(=O)C(=O)c1c[nH]c2ccccc12` gave a TGI above 100 µM.

Take `O=C1NCCN1/N=C/c1c(Cl)n(-c2ccccc2)c2ccccc12`: the TGI is above 100 µM.

In the case of `CCCCCCOc1ccc(C(=O)NOC)cc1`, the TGI is 86.8 µM.

For the molecule `CO[C@H]1/C=C(/C)CCC[C@H](C)[C@H](O)[C@@H](C)C(=O)C(C)(C)[C@@H](O)CC(=O)O[C@@H]1/C(C)=C/c1csc(C)n1`, the GI50 is below 0.01 µM and the TGI is above 100 µM.

In turn, `CC(=O)Nc1nc(C#N)[nH]c1C#N` came in with a TGI above 100 µM.

In the case of `CC1CCC(C(=O)O)(C(Br)C(=O)O)CC1` (configuration not stated), the TGI was above 100 µM.

For the molecule `COc1cc(NS(C)(=O)=O)ccc1Nc1cc(C)[nH]c2ccc3nccc3c12`, the TGI is above 100 µM.

In turn, `CCOC(=O)Cn1c(=O)c2nc(SC)sc2n(-c2ccccc2)c1=O` displayed a TGI above 100 µM.

In turn, `COc1ccc(-c2nc(SCC(=O)N/N=C/c3ccc(N(C)C)cc3)[nH]c2-c2ccc(OC)cc2)cc1` registered a TGI above 100 µM.

`CC1=C[C@@H]2Cc3nc4cc(Cl)ccc4c(N)c3[C@H](C1)C2` showed a TGI of 35.3 µM.

For the molecule `c1c[nH]c(-c2ccc(-c3ccc[nH]3)c3nsnc23)c1`, the TGI is above 100 µM.

With `CCOC(=O)c1c(C)nc2c3ccccc3c(C#N)c(C)n12`, the TGI was above 100 µM.

`CCOC(=O)c1cn2c(nc1=O)N[C@H]1CCCC[C@@H]12` showed a TGI above 100 µM.

As for `CC1=NS(=O)(=O)c2ccccc2N1`, the TGI is above 100 µM.

`COP(=O)(/C=C/c1cc(C(=O)OCc2ccccc2)n(S(=O)(=O)c2ccccc2)c1)OC` showed a TGI above 100 µM.

Take `O=C(O)CCC(=O)OC1N=C(c2ccccc2Cl)c2cc([N+](=O)[O-])ccc2NC1=O` (configuration not stated): the TGI is above 100 µM.

Consider `COc1ccc(C2=N/C(=C\c3ccccc3)C(=O)O2)cc1`, for which the TGI worked out at 31 µM.

In turn, `CSc1nsc(-c2ccccc2)[s+]1` gave a TGI above 100 µM.

Consider `Oc1ccc([I+]c2ccccc2)cc1O`, for which the TGI amounted to 47.1 µM.

The molecule `NC1=NCC(CN2CCOCC2)O1` (configuration not stated) yielded a TGI above 100 µM.

Consider `COc1cccc2c(=O)oc(-c3ccc(C(C)(C)C)cc3)nc12`, for which the TGI worked out at 44 µM.

A further assay relates to SW-620 colon. As to the kind of experiment: DTP human tumour cell line panel, 48 h.
Consider `COc1ccc2c(c1)/C(=C\c1c(Cl)nc3sc(C)cn13)C(=O)N2`, for which the TGI is 11.7 µM.

The molecule `O=C1c2ccccc2-c2c1c(-c1ccc(F)cc1)nc1ccc3ccccc3c21` yielded a TGI above 100 µM.

The molecule `O=C(/C=C/c1ccc2c(c1)OCO2)CC(=O)C(=O)c1c[nH]c2ccccc12` showed a TGI above 100 µM.

With `O=c1[nH]c(=O)n(C2OC(CO)C(O)C2O)c2nc(-c3ccc(-c4ccccc4)cc3)cnc12` (configuration not stated), the TGI is above 100 µM.

Turning to `O=C1NCCN1/N=C/c1c(Cl)n(-c2ccccc2)c2ccccc12`, the TGI was found to be 53.4 µM.

`CCCCCCOc1ccc(C(=O)NOC)cc1`: the TGI is above 100 µM.

For `CO[C@H]1/C=C(/C)CCC[C@H](C)[C@H](O)[C@@H](C)C(=O)C(C)(C)[C@@H](O)CC(=O)O[C@@H]1/C(C)=C/c1csc(C)n1`, the GI50 is below 0.0148 µM and the TGI is above 100 µM.

`CC(=O)Nc1nc(C#N)[nH]c1C#N` had a TGI above 100 µM.

As for `CC1CCC(C(=O)O)(C(Br)C(=O)O)CC1` (configuration not stated), the TGI is above 100 µM.

Consider `COc1cc(NS(C)(=O)=O)ccc1Nc1cc(C)[nH]c2ccc3nccc3c12`, for which the TGI was above 100 µM.

Regarding `CCOC(=O)Cn1c(=O)c2nc(SC)sc2n(-c2ccccc2)c1=O`, the TGI is above 100 µM.

The molecule `COc1ccc(-c2nc(SCC(=O)N/N=C/c3ccc(N(C)C)cc3)[nH]c2-c2ccc(OC)cc2)cc1` came in with a TGI above 100 µM.

Turning to `CC1=C[C@@H]2Cc3nc4cc(Cl)ccc4c(N)c3[C@H](C1)C2`, the TGI came out at 25.3 µM.

Molecule `c1c[nH]c(-c2ccc(-c3ccc[nH]3)c3nsnc23)c1` gave a TGI above 100 µM.

For `CS(=O)(=O)OCC(CCl)(CCl)CCl`, the TGI was above 100 µM.

In turn, `N#Cc1c(-c2ccccc2)/c(=C\Nc2ccc(F)cc2)c(=O)n2c1nc1ccccc12` registered a TGI above 100 µM.

Regarding `COc1ccc2c(C)cc(=O)oc2c1OC`, the TGI is above 100 µM.

For the molecule `OCCc1ccsc1-c1sc(-c2cc(CCO)c(-c3sccc3CCO)s2)cc1CCO`, the TGI is above 100 µM.

`Cc1cc2c3c(nc4ccccc42)C(=O)c2ccccc2-c3n1` came in with a TGI of 35.9 µM.

As to `CCOC(=O)c1c(C)nc2c3ccccc3c(C#N)c(C)n12`, the TGI was above 100 µM.

The molecule `O=c1[nH]c(Nc2nc3ccccc3[nH]2)nc(O)c1-c1ccccc1` displayed a TGI above 100 µM.

The molecule `CCOC(=O)c1cn2c(nc1=O)N[C@H]1CCCC[C@@H]12` displayed a TGI above 100 µM.
